Laboratory results taken from US20060079575A1, “Gamma-butyrolactone compound and pharmaceutical composition thereof” (priority 2003, published 2006).
Converted amounts (≈) assume the structure as drawn. Where two headings read alike, the source gives them in different places.

Tests used:
[1] = system: p21 and p53; test: Western blotting of p21 and p53, A549; assay type: cell-based, human
Excerpt: FIG. 5 is a western blot analysis diagram showing the amount of tumor suppressors: p21 and p53 expressed in A 549 cells either untreated (B), treated with DMSO (D) or BS-AE, BS-ME, BS-WE, isochaihulactone (BS-1), or chaihulactone (BS-2) for 1 day (1D) or 3 days (3D);

[2] = system: telomerase; test: Telomerase activity of treated tumor cell lines; assay type: cell-based; conditions: cell lines of human lung cancer, hepatoma, malignant glioblastoma, colorectal carcinoma
Experimental: A prominent cytotoxic effect was shown when the γ-butyrolactone heterocyclic compound and pharmaceutical composition thereof are added to the Paclitaxel-resistant tumor cell lines, indicating Bupleurum scorzonerifolium indeed contain active components for inhibiting tumor growth. The active components for inhibiting tumor growth refer to the novel compound and pharmaceutical composition thereof having a γ-core and having a Z or E configuration for its carbon 2(5) location at the core.

[3] = system: A549-T12 (taxol resistant A549 subline); test: MTT cytotoxicity assay, A549-T12; assay type: cell-based, human; conditions: 24 hr
[4] = system: HT29 (colon cancer cell line); test: MTT cytotoxicity assay, HT29; assay type: cell-based, human; conditions: 24 hr
Excerpt: (§1) MTT assay is used to test the cytotoxic effect of BS-AE, BS-ME, BS-HE, BS-CE and BS-WE on human lung cancer cell line A549. […] According to the extraction process “BS-AE→BS-MWE→BS-CE” all of the crude extracts contain tumor inhibitory components. In order to further isolate the tumor inhibitory components from Bupleurum scorzonerifolium extract, a “Chromatography” step is further employed to isolate the BS-CE.
(§2) It is known from the experimental result of this invention, BS-AE containing the γ-butyrolactone compound and pharmaceutical composition thereof have significant growth inhibitory effect on human hepatoma, lung cancer, ovarian cancer, breast cancer, malignant glioblastoma and colorectal carcinoma cells.

[5] = system: A549 (lung cancer cell line); test: MTT cytotoxicity assay, A549; assay type: cell-based, human; conditions: 24 hr
Excerpt: as §1, §2

[6] = system: telomerase; test: Inhibition of telomerase activity in Paclitaxel-resistant tumor cells; assay type: cell-based, human; conditions: Paclitaxel-resistant tumor cells (A549-T12)
Excerpt: Furthermore, after crude Bupleurum scorzonerifolium is processed according to the above-mentioned manufacturing method, its tumor inhibitory effect is more prominent.

[7] = system: A549 cells; test: Annexin V-FLOUS/PI flow cytometry (apoptosis), A549; assay type: cell-based, human; conditions: A549, 20 μM, cultured 48 hours; untreated 3.8%
Experimental: FIGS. 3A through to FIG. 3C are cytograms showing the extent of cell apoptosis detected using flow cytometry for A 549 cells either untreated, treated with 20 μM of isochalihulactone, or 60 μg/ml of BS-AE and cultured for 48 hrs (wherein X-axis indicates fluorescence intensity of tumor cells bound with Annexin V-FLOUS antibodies; and Y-axis indicates fluorescence intensity of tumor cells bound with PI antibodies);
In the example of using cell line A549, untreated A549 cells, A549 cells treated with 20 μM of Isochaihulactone and A549 cells treated with 60 μg/ml of BS-AE are cultured 48 hours before utilizing flow cytometry to detect the staining results between Annexin V-FLOUS and PI. In FIGS. 3A through to 3C, X-axis represents the fluorescent brightness of tumor cells with antibody Annexin V-FLOUS, and Y-axis represents the fluorescent brightness of tumor cells with antibody PI.

[8] = system: Hep G2 (Hepatocellular carcinoma); test: MTT cytotoxicity assay, Hep G2; assay type: cell-based; conditions: Homo sapiens, HepG2, read-out: IC 50, HepG2; heading: IC 50, HepG2; 24 hr
Excerpt: as §1, §2

[9] = system: A549-T12 cells; test: MTT assay A549-T12, 24 and 48 hrs (FIG. 10); assay type: cell-based, human; conditions: Paclitaxel-resistant lung cancer cell line
Experimental: FIGS. 10A through to 10C illustrate results of MTT assays for A549-T12 cells treated with BS-AE, isochaihulactone (BS-8), and isokaerophyllin (BS-15) respectively for 24 hrs and 48 hrs;
Besides, after BS-AE, BS-8, and BS-15 are added to Paclitaxel-resistant lung cancer cell line for 48 hours, viability ratio of tumor cells is reduced as illustrated in FIGS. 10A through to 10C. So, in view of IC50 or ED50, the cytotoxic effect of purified chaihulactone analog on the tumor cells is […] than BS-AE. […] Furthermore, a substantially low dose (1.5 μg/ml) of the compound is all that requires to induce apoptosis for the tumor cells.

[10] = system: A549-T12 cells; test: Annexin V-FLOUS/PI flow cytometry (apoptosis), A549-T12; assay type: cell-based, human; conditions: A549-T12, 8 μg/ml, 48 hours; untreated 6.8%
Excerpt: FIGS. 9A through to 9D are cytograms showing the extent of cell apoptosis detected using flow cytometry for Paclitaxel-resistant human lung cancer cell lines (A549-T12 cells) either untreated, treated with BS-AE, isochalihulactone (BS-8), or isokaerophyllin ([…] fluorescence intensity of tumor cells bound with Annexin V-FLOUS antibodies; and Y-axis indicates fluorescence intensity of tumor cells bound with PI antibodies);
The following embodiments are described with Paclitaxel-resistant tumor cell A549-T12 (passage cultured from lung cancer cell line A549 cells with low concentration of Paclitaxel) as an example to test the effect of BS-AE and its pure compounds BS-8 and BS-15 (these represent isochaihulactone and chaihulactone analogues) on A549-T12 cells. Flow cytometry, drug toxicity test, and histological sections are adopted to evaluate cytotoxic effect of the γ-butyrolactone compound and pharmaceutical composition thereof on Paclitaxel-resistant tumor cells.
FIGS. 9A through to 9D are flow cytometry results illustrating a comparison of the change of Annexin V-FLOUS and PI for untreated group with that of the group treated with 100 nM of Paclitaxel, 30 μg/ml BS-AE, 8 μg/ml BS-8 and 8 μg/ml BS-15 to A549-T12. […]

[11] = system: J5 (hepatocellular carcinoma); test: MTT cytotoxicity assay, J5; assay type: cell-based; conditions: Homo sapiens, read-out: IC 50, J 5; heading: IC 50, J 5; 24 hr
Excerpt: as §1, §2

[12] = system: A549 cells; test: Cell cycle by flow cytometry, A549; assay type: cell-based, human
Excerpt: FIGS. 2A through to FIG. 2D illustrate the cell cycle peak change detected using flow cytometry for A549 cells treated with Bupleurum scorzonerifolium extracts: acetone extract (BS-AE), methanol extract (BS-ME) and water extract (BS-WE) isolated according to the extracting method of the invention;
FIG. 4 is a bar chart showing cell cycle changes detected using flow cytometry for A549 cells untreated, treated with BS-AE, isochaihulactone (BS-8), and Paclitaxel;
Furthermore, flow cytometry is employed to observe the changes in cell cycle before and after the addition of different extracts from Bupleurum scorzonerifolium to A549 cells. In FIGS. 2A through to 2D, X-axis represents chromosome numbers (2N, 4N, etc.) of tumor cells in contact with the antibody, Y-axis represents the fluorescent brightness of Fluorescein Isothiocyanate (FITC). […] This effect is most significant for BS-AE.

[13] = system: OVCAR-3 (ovarian cancer cell line); test: MTT cytotoxicity assay, OVCAR-3; assay type: cell-based; conditions: Homo sapiens, OVCAR-3, read-out: IC 50, OVCAR-3; 24 hr
Excerpt: as §1, §2

[14] = system: β-tubulin; test: Western blot of soluble and particular β-tubulin, A549; assay type: cell-based, human; conditions: A549, FIG. 7
Excerpt: FIG. 7 is a western blot analysis diagram showing expression of soluble (S) and particular (P) form of β-tubulin in A549 cells either untreated (C), treated with BS-AE, isochaihulactone (BS-8), Paclitaxel, or Vinblastine;
[…] is then used to analyze the change of cytoskeleton of tumor cell lines treated with Bupleurum scorzonerifolium extract. […] Then, a polymerization event is observed before and after the treatment of BS-AE.

[15] = system: DBTRG-05MG (glioblastoma multiforme); test: MTT cytotoxicity assay, DBTRG-05MG; assay type: cell-based; conditions: Homo sapiens, read-out: IC 50, DBTRG-05MG, 24 hr
Excerpt: as §1, §2

[16] = system: MCF 7 (breast cancer cell line); test: MTT cytotoxicity assay, MCF 7; assay type: cell-based; conditions: Homo sapiens, MCF7, read-out: IC 50, MCF 7; 24 hr
Excerpt: as §1, §2

[17] = system: WI-38 (embryonic fibroblast cell line); test: MTT cytotoxicity assay, WI-38; assay type: cell-based; conditions: 24 hr

COc1cc(/C=C2/C(=O)OC[C@@H]2Cc2ccc3c(c2)OCO3)cc(OC)c1OC [Component 3, Chaihulactone]
expression level of tumor suppressor p21 and p53 [1]: significant increase
reduction of telomerase activity vs untreated control [2]: 5 times

paclitaxel [Taxol, reference compound]
IC50 ([3]; Taxol in nM, read-out: IC 50, A549-T12): 20 ± 2.7 nM
IC50 ([4]; Taxol in nM, read-out: IC 50, HT 29): 3 ± 0.5 nM
IC50 ([5]; Taxol in nM, read-out: IC 50, A549): 4 ± 0.6 nM

COc1cc(/C=C2\C(=O)OC[C@@H]2Cc2ccc3c(c2)OCO3)cc(OC)c1OC [BS-8, Isochaihulactone]
effective concentration for inhibiting telomerase activity [6]: about 1.2 μg/mL
tumor cells coupled to Annexin V [7]: 32.7%
IC50 [8]: 5.5 ± 0.5 µg/mL (≈ 13.8 µM)
viability ratio of tumor cells [9]: reduced
tumor cells coupled to Annexin V [10]: 30.6%
IC50 [11]: 3.5 ± 0.7 µg/mL (≈ 8.78 µM)
cell cycle effect [12]: arrest at G2/M stage
IC50 ([3]; Homo sapiens, A549, read-out: IC 50, A549-T12, heading: IC 50, A549-T12): 1.7 ± 0.3 µg/mL
IC50 [13]: 7.2 ± 1.2 µg/mL (≈ 18.1 µM)
particular form (polymerized β-microtubule) [14]: increases
soluble form (non-polymerized β-microtubule) [14]: significantly diminishes
IC50 [15]: 7.5 ± 1 µg/mL (≈ 18.8 µM)
IC50 [16]: 8 ± 0.8 µg/mL (≈ 20.1 µM)
IC50 ([4]; Homo sapiens, HT-29, read-out: IC 50, HT 29, heading: IC 50, HT 29): 5 ± 0.8 µg/mL
expression level of tumor suppressor p21 and p53 [1]: significant increase
IC50 ([5]; Homo sapiens, A549, read-out: IC 50, A549): 8 ± 0.8 µg/mL
reduction of telomerase activity vs untreated control [2]: 5 times

N.N.[Cl][Pt][Cl] [Cisplatin, cisdiammine dichloroplatinum]
IC 50, WI 38 [17]: 21300 ± 4500 µg/mL
IC 50, A549 [5]: 17200 ± 2700 µg/mL

COc1ccc(/C=C2\C(=O)OC[C@@H]2Cc2ccc3c(c2)OCO3)cc1OC [BS-15, Isokaerophyllin]
viability ratio of tumor cells [9]: reduced
tumor cells coupled to Annexin V [10]: 23.1%
